Measurements reported in patent US20220324876A1, “4-SUBSTITUTED PYRANO[3,4,b]PYRAZINE KAPPA AGONISTS FOR TREATING DRUG DEPENDENCY” (The Rockefeller University, priority 2019, published 2022).
Read-outs that look alike come from different tables or passages of the source.

How the values were obtained:
[1] = molecular target: kappa opioid receptor (hOPRK1) β-arrestin (Homo sapiens, UniProt P41145); test: β-arrestin PathHunter assay (U2OS hOPRK1); settings: for Arrestin efficacy, %: Table E
[2] = molecular target: T1, human kappa opioid receptors (Homo sapiens, UniProt P41145); test: [35S]GTPγS binding, membranes from U2OS cells; type: biochemical; settings: for Emax: read-out: GTPγS (% efficacy)
T1 construct: expressed in transfected cells; host or cells: U2OS
T1 sequence (P41145 whole entry): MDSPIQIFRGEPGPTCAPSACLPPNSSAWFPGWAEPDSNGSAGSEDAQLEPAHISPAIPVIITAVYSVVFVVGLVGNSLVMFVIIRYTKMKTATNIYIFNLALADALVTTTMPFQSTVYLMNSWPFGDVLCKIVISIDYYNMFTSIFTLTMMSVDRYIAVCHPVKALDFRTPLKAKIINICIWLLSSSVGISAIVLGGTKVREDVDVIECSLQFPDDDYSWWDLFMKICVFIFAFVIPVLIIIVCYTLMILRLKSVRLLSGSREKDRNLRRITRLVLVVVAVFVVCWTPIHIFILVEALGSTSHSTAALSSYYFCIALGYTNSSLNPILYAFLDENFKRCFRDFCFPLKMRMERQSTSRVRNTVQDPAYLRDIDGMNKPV

male mice [3] = test: Rotarod incoordination (sedation) in mice; type: in vivo
Excerpt: In the case of rotarod incoordination, kappa agonist effects in this assay reflect kappa-opioid receptor arrestin mediated signaling. This assay is thought to be a sensitive measure of the sedative properties of kappa opioid receptor agonists. Generally, a compound which has reduced efficacy in the coupling of arrestin with the kappa opioid receptor is thought to have a lowered potential for the sedative side effects of kappa opioid receptor ligands Rotarod assays in vivo are employed to confirm this possibility.
Rotarod experiments are conducted with mice using a dedicated rodent rotarod apparatus, with up to five animals tested concurrently (IITC Life Science, Woodland Hills, Calif, USA). Rotarod rotation rate begins at 3 rotations per minute, and ramps to 30 rotations per minute over the course of 300 s, at which time the assay is terminated and animals removed to their home cage. Animals are acclimated to the rotarod on at least two occasions prior to the day of the test. On the day of the test, baseline times for each animal to fall off the rotarod are recorded. Mice are then injected intraperitoneally with vehicle or compound, and rotarod measurements conducted, beginning 0-2 minutes after injection, and then subsequently at select time points thereafter. Animals which fail to remain on the rotarod for at least 150 seconds during baseline testing are removed from the analysis.
(The closure of laboratories during the covid-19 pandemic delayed the carrying out of conditioned place aversion assays and modulation of cocaine self-administration, so that results were not available by the filing date of this application.)

male mice [4] = test: Serum prolactin release in mice; type: in vivo; settings: dose-response experiment

kappa opioid receptor (hOPRK1) β-arrestin, sequence (P41145 whole entry): as above

| SMILES | EC50 [1] [µM] | Arrestin efficacy, % [1] [%] | EC50 ([2]; GTPγS EC50 (nM), Table D) [nM] | EC50 ([2]; GTPγS potency (nM), Table E) [nM] | GTPγS efficacy, % ([2]; Table E) [%] | Emax [2] [%] | further results |
| --- | --- | --- | --- | --- | --- | --- | --- |
| CC(C)(O)C(=O)N1CCN(C(=O)Cc2ccc(Cl)c(Cl)c2)[C@H]2[C@H](N3CCCC3)COC[C@@H]21 [Example 5A96B] | 24.8 | 60.7 | 64 | 71.4 | 123.5 | 113 | – |
| CC(C)(O)CN1CCN(C(=O)Cc2ccc(Cl)c(Cl)c2)[C@H]2[C@H](N3CCCC3)COC[C@@H]21 (single isomer, unassigned) [Example 5A90B] | 5.25 | 46.5 | 5.4 | 8.9 | 69.3 | 68 | sedative effect in rotarod (male mice [3]; 10 mg/kg intraperitoneally): not; sedative effect in rotarod (male mice [3]; 30 mg/kg intraperitoneally): not; sedative effect in rotarod (male mice [3]; 90 mg/kg intraperitoneally): substantial sedative effect; stimulation of prolactin levels (male mice [4]; 30 mg/kg (p<0.05)): statistically significant stimulation; stimulation of prolactin levels (male mice [4]; 90 mg/kg (p<0.005)): statistically significant stimulation |
| CC(C)(O)CN1CCN(C(=O)Cc2ccc(Cl)c(Cl)c2)[C@H]2[C@H]1COC[C@@H]2N1CCCC1 (single isomer, unassigned) [Example 5A90A] | 43.2 | 78.1 | 22 | 34.7 | 91.0 | 101 | – |
| O=C(Cc1ccc(Cl)c(Cl)c1)N1CCN(Cc2ccccn2)[C@@H]2COC[C@H](N3CCCC3)[C@H]21 (racemic) [rac-5A80] | – | – | 64 | – | – | 94 | – |
| O=C(Cc1ccc(Cl)c(Cl)c1)N1CCN(CCO)[C@H]2COC[C@@H](N3CCCC3)[C@@H]21 (single isomer, unassigned) [Example 5A74B] | – | – | 12 | – | – | 95 | – |
| O=C(Cc1ccc(Cl)c(Cl)c1)N1CCN(S(=O)(=O)CCO)[C@@H]2COC[C@H](N3CCCC3)[C@H]21 (single isomer, unassigned) [Example 5A140A] | – | – | 20 | – | – | 112 | – |
| CC(C)(O)C(=O)N1CCN(C(=O)Cc2ccc(Cl)c(Cl)c2)[C@H]2[C@H]1COC[C@@H]2N1CCCC1 [Example 5A96A] | 3.76 | 53.0 | 17 | 32.8 | 77.0 | 64 | sedative effect in rotarod (male mice [3]; up to 90 mg/kg intraperitoneally): no statistically significant sedative effect |
| Cc1nnc(CN2CCN(C(=O)Cc3ccc(Cl)c(Cl)c3)[C@H]3[C@H]2COC[C@@H]3N2CCCC2)o1 (racemic) [rac-5A118] | – | – | 40 | – | – | 91 | – |
| O=C(Cc1ccc(Cl)c(Cl)c1)N1CCN(CC2CCOCC2)[C@@H]2COC[C@H](N3CCCC3)[C@H]21 (racemic) [rac-5A84] | – | – | – | – | – | 84 | EC50 [2]: 136 nM |
| O=C(Cc1ccc(Cl)c(Cl)c1)N1CCN(C(=O)C2(O)CCCC2)[C@H]2COC[C@@H](N3CCCC3)[C@@H]21 (single isomer, unassigned) [Example 5A125B] | – | – | 35 | – | – | 81 | – |
